Measured values published in patent US20040152769A1, “Modified carbamate-containing prodrugs and methods of synthesizing same” (priority 2002, published 2004).
Converted amounts (≈) assume the structure as drawn. Like-named read-outs stand apart in the source and are kept apart here.

Experiments:
[1] = Solubility of Dilantin®-PEG3 conjugate in acetonitrile and deionized water (HPLC); type: physicochemical
Procedure: 5,5-diphenylhydrantoin and Dilantin®-PEG3 conjugate prodrug solutions were made in acetonitrile with concentrations of 1.12 mg/mL and 0.8 mg/mL, respectively.
Solutions of 5,5-diphenylhydrantoin and Dilantin®-PEG3 conjugate were then made in deionized water at concentrations of 0.99 mg/mL and 0.93 mg/mL, respectively. These solutions were mixed well by vortexing. 1 mL aliquots were taken and spun by centrifuge at 5000 rpm for five minutes. The resultant supemant was taken and analyzed by HPLC for solution concentration. The concentration of 5,5-diphenylhydrantoin was 4 μg/mL. The concentration of Dilantin®-PEG3 conjugate was 160 μg/mL.

[2] = pH 2.0 stability of prodrugs of the native compound (0.06M phosphate buffer, 37° C., 2 hours, RP-HPLC); details: for pH 2 Stability: pH 2.0 phosphate buffer, 37° C.; for % Area of Pro-drug / % Area NC: pH 2.0, 37° C., 2 hours, RP-HPLC; for % Area NC: native compound formed
Procedure: The samples were incubated in a water bath at 37° C. for 2 hours. Each sample was then removed from the water bath and vortexed.

[3] = Oral absorption in rats, parent compound in plasma by LC/MS/MS; details: rat, p.o., result in words; for Oral Absorption: first part of Table 2
Procedure: 100 μL of plasma was extracted with 500 μL of acetonitrile, vortexed and centrifuged. The supernatant was removed, evaporated to dryness, and then reconstituted with 100 μL of 30% methanol. The reconstituted samples were then centrifuged to remove particulates. The supernatant was removed and transferred to HPLC vials for detection and quantitation of the parent compound by LC/MS/MS.

[4] = Rat plasma stability of selected prodrugs (37° C., RP-HPLC); type: in vitro ADME; details: for % comp. 0′ / % comp. 60′ / % comp. 120′ / % comp. 240′ / % comp. 360′ / % comp. 480′: 37° C., peak area; for % comp. 0′: 0 minutes; for % comp. 60′: 60 minutes; for % comp. 120′: 120 minutes; for % comp. 240′: 240 minutes; for % comp. 360′: 360 minutes; for % comp. 480′: 480 minutes
Procedure: Using 1 mg/mL stock solutions of a prodrug described in Example 6.8 above in acetonitrile, 990 μL of rat plasma was spiked with 10 μL of conjugate. The plasma spikes were incubated at 37° C. 100 μL of each sample at each time-point was removed and the reaction was quenched with 500 μL of acetonitrile. Each sample was vortexed and centrifuged immediately and the resultant supernatant was removed, discarding the pellet. The supernatant was concentrated and reconstituted with 100 μL of 30% acetonitrile. Prior to transferring samples to HPLC vials, the samples were centrifuged for 15 minutes at 14000 rpm at 2° C. to remove particulates. 10 μL of 10 μg/mL standard and 75 μL of reconstituted sample were injected for RP-HPLC analysis.
The stability of the prodrugs was measured by analyzing samples at the following time-points: 0, 60, 120, 240, 360, and 480 minutes. Retention time, peak area, and UV spectrum were measured for each sample and standard. […] A Waters 2690 HPLC was used for sample analysis (column: Delta Pak C18 Guard Column, C18, 5 m, 2.1 mm×50 mm; Collected spectrum: 210-380 nm. Extracted chromatogram: 240 nm; Mobile Phase; 0.1% TFA in Water/0.1% TFA in acetonitrile; flow Rate: 0.5 mL/minute).

[5] = Chemical hydrolysis of Dilantin®-conjugate (PEG-3) at a pH of about 2; type: physicochemical; details: 0.06M phosphate buffer pH 2.0, 37° C.
Procedure: Aliquots of a stock solution of Dilantin®-PEG3 conjugate in acetonitrile were spiked into 0.06M phosphate buffer, pH 2.0 (2 μl stock solution in 998 μl buffer). The sample was incubated in a water bath at 37° C. At time points one hour apart, a portion of the sample was removed and submitted for immediate analysis by RP-HPLC.

[6] = Stability of Dilantin®-PEG3 conjugate in rat plasma (spike controls, RP-HPLC); type: in vitro ADME
Procedure: Also using a stock solution of Dilantin®-PEG3 conjugate in acetonitrile, the following spike controls were prepared in rat plasma: 1 μg/ml, 750 ng/ml, 500 ng/ml and 250 ng/ml. After vortexing, […] of acetonitrile was added. Each sample was centrifuged immediately and the resultant supernatant was removed and the pellet discarded. The supernatant was concentrated and reconstituted with […] of 30% acetonitrile. […] Samples were submitted for RP-HPLC anaylsis. […] Thus, near complete plasma hydrolysis of the conjugate may occur within 1 minute. Studies were repeated a second day to confirm results.

O=C1NC(=O)C(c2ccccc2)(c2ccccc2)N1 [5,5-diphenylhydrantoin, reference compound]
solubility in acetonitrile [1]: 100%
solubility ([1]; water, thermodynamic from solid): 4 µg/mL (≈ 15.9 µM)

CCOC(=O)CCOCCOCCOC [Compound 1]
pH 2 Stability [2]: None

CCOCCOCCOCCC(=O)OCC [Compound 2]
pH 2 Stability [2]: None

CCOC(=O)CCOCCOCCOCCOCCOCCOCCOCCOCCOC [Compound 3]
pH 2 Stability [2]: None

CCOC(=O)COCCOCCOC [Compound 4]
pH 2 Stability [2]: None

CCOC(=O)OCCOCCOCCOC [Compound 5]
pH 2 Stability [2]: None

COCCOCCOCCOC(=O)N(C(=O)NCCCN1CCC(c2cccc(OC)c2)CC1)c1cccc(C2C(C(=O)OC)=C(C)NC(C)=C2C(=O)OC)c1 [Compound 6]
pH 2 Stability [2]: >2 h
Oral Absorption [3]: Not Detected

COCCOCCOCCOCCOCCOCCOCCOCCOC(=O)N(C(=O)NCCCN1CCC(c2cccc(OC)c2)CC1)c1cccc(C2C(C(=O)OC)=C(C)NC(C)=C2C(=O)OC)c1 [Compound 8]
pH 2 Stability [2]: >2 h
Oral Absorption [3]: Not Detected

COC(=O)C1=C(C)NC(C)=C(C(=O)OC)C1c1cccc(N(C(=O)NCCCN2CCC(c3cccc(OC)c3)CC2)C(=O)OC)c1.Cl [Compound 11]
pH 2 Stability [2]: >2 h

COCCOCCOCCOC(=O)N(C(=O)NCCCN1CCC(c2cccc(OC)c2)CC1)c1cccc(C2C(C(=O)OC)=C(C)NC(C)=C2C(=O)OC)c1.Cl [Compound 13]
% comp. 0′ ([4]; rat plasma): 99.0%
% comp. 60′ ([4]; rat plasma): 98.0%
% comp. 120′ ([4]; rat plasma): 98.0%
% comp. 240′ ([4]; rat plasma): 97.0%
% comp. 360′ ([4]; rat plasma): 96.0%
% comp. 480′ ([4]; rat plasma): 95.0%
% Area of Pro-drug [2]: 100%
% Area NC [2]: 0%
pH 2 Stability [2]: >2 h

CCOC(=O)N(C(=O)NCCCN1CCC(c2cccc(OC)c2)CC1)c1cccc(C2C(C(=O)OC)=C(C)NC(C)=C2C(=O)OC)c1.Cl [Compound 14]
% comp. 0′ ([4]; rat plasma): 98.0%
% comp. 60′ ([4]; rat plasma): 98.0%
% comp. 120′ ([4]; rat plasma): 97.5%
% comp. 240′ ([4]; rat plasma): 96.5%
% comp. 360′ ([4]; rat plasma): 96.0%
% comp. 480′ ([4]; rat plasma): 95.0%
pH 2 Stability [2]: >2 h

COC(=O)C1=C(C)NC(C)=C(C(=O)OC)C1c1cccc(N(C(=O)NCCCN2CCC(c3cccc(OC)c3)CC2)C(=O)OC(CO)CO)c1.Cl [Compound 16]
% comp. 0′ ([4]; rat plasma): 0%
% comp. 60′ ([4]; rat plasma): 0%
% comp. 120′ ([4]; rat plasma): 0%
% comp. 240′ ([4]; rat plasma): 1%
% comp. 360′ ([4]; rat plasma): 1%
% comp. 480′ ([4]; rat plasma): 1%
stability in rat plasma ([4]; rat plasma, result in words): unstable
prodrug converted to the native compound ([4]; within 30 seconds of being introduced to rat plasma): ~100%
Oral Absorption (Relative AUCs) ([3]; second part of Table 2): Minimal

COCCOCCOCCOCCOC(=O)N(C(=O)NCCCN1CCC(c2cccc(OC)c2)CC1)c1cccc(C2C(C(=O)OC)=C(C)NC(C)=C2C(=O)OC)c1.Cl [Compound 17]
% comp. 0′ ([4]; rat plasma): 99.7%
% comp. 60′ ([4]; rat plasma): 99.0%
% comp. 120′ ([4]; rat plasma): 98.5%
% comp. 240′ ([4]; rat plasma): 98.0%
% comp. 360′ ([4]; rat plasma): 97.0%
% comp. 480′ ([4]; rat plasma): 96.0%
% Area of Pro-drug [2]: 100%
% Area NC [2]: 0%
pH 2 Stability [2]: >2 h

COCCOCCOCCOCCOCCOCCOCCOCCOC(=O)N(C(=O)NCCCN1CCC(c2cccc(OC)c2)CC1)c1cccc(C2C(C(=O)OC)=C(C)NC(C)=C2C(=O)OC)c1.Cl [Compound 19]
% comp. 0′ ([4]; rat plasma): 97.0%
% comp. 60′ ([4]; rat plasma): 97.0%
% comp. 120′ ([4]; rat plasma): 96.5%
% comp. 240′ ([4]; rat plasma): 96.0%
% comp. 360′ ([4]; rat plasma): 95.3%
% comp. 480′ ([4]; rat plasma): 94.0%
pH 2 Stability [2]: >2 h

COCCOCCOC(=O)N(C(=O)NCCCN1CCC(c2cccc(OC)c2)CC1)c1cccc(C2C(C(=O)OC)=C(C)NC(C)=C2C(=O)OC)c1.Cl [Compound 21]
% Area of Pro-drug [2]: 100%
% Area NC [2]: 0%
pH 2 Stability [2]: >2 h

COCCOC(=O)N(C(=O)NCCCN1CCC(c2cccc(OC)c2)CC1)c1cccc(C2C(C(=O)OC)=C(C)NC(C)=C2C(=O)OC)c1.Cl [Compound 22]
% Area of Pro-drug [2]: 100%
% Area NC [2]: 0%
pH 2 Stability [2]: >2 h

COCCOCCOCCOC(=O)N1C(=O)NC(c2ccccc2)(c2ccccc2)C1=O [Dilantin®-PEG3 conjugate]
Dilantin ® -PEG3 (Remaining), % ([5]; time 0 hours): 100%
Dilantin ® -PEG3 (Remaining), % ([5]; time 2 hours): 96.79%
Dilantin ® -PEG3 (Remaining), % ([5]; time 3 hours): 94.99%
solubility in acetonitrile ([1]; acetonitrile, 1.12 mg/mL (5,5-diphenylhydrantoin) and 0.8 mg/mL (conjugate)): 100%
solubility in water compared with native drug ([1]; deionized water): more soluble in water than the native drug
concentration in supernatant (solubility in water) ([1]; deionized water, made at 0.99 mg/mL and 0.93 mg/mL, centrifuged, HPLC): 160 µg/mL
time to near complete plasma hydrolysis of the conjugate ([6]; rat plasma): ≤ 1 min
species found in extracted rat plasma samples ([6]; rat plasma spiked at 1 μg/ml, 750, 500 and 250 ng/ml, RP-HPLC): only the presence of phenyloin

COC(=O)C1=C(C)NC(C)=C(C(=O)OC)C1c1cccc(NC(=O)NCCCN2CCC(c3cccc(OC)c3)CC2)c1 [Native drug, 1,4-Dihydro-[3-[[[[3-[4-(3-methoxyphenyl)-1-piperidinyl]propyl]amino]carbonyl]amino]phenyl]-2,6-dimethyl-3,5-pyridinedicarboxylic acid, dimethyl ester]
pH 2 Stability: >2 h
